The source of these data is US20240343681A1, “MOLECULES HAVING PESTICIDAL UTILITY AND INTERMEDIATES AND PROCESSES RELATED THERETO” (priority 2021, published 2024).

For the assay, the system named is Beet Armyworm (Spodoptera exigua, LAPHEG) second instar larva. Briefly: Bioassay on beet armyworm (BAW), 128-well diet tray assay. Particulars: 50 μg/cm^2 on artificial diet, 25° C., five days. The format is in vivo. As to the method: Example A: Bioassays on Beet Armyworm (Spodoptera exigua, LAPHEG) (“BAW”) and Cabbage Looper (Trichoplusia ni, TRIPNI) (“CL”)
Bioassays on BAW were conducted using a 128-well diet tray assay. One second instar BAW larva was placed in each well (8 wells total) of the diet tray that had been previously filled with 1 mL of artificial diet to which 50 μg/cm^2 of the test molecule (dissolved in 50 μL of 90:10 acetone-water mixture) had been applied (to each of eight wells) and then allowed to dry. Trays were covered with a clear self-adhesive cover, vented to allow gas exchange, and held at 25° C., 14:10 light-dark for five days. Percent mortality was recorded for the larvae in each well; activity in the eight wells was then averaged.

As for `O=C(Nc1cc(NC(=O)C2C(c3cc(Cl)cc(Cl)c3)C2(Cl)Cl)ccc1Cl)C1CCCO1` (racemic) [F38, trans-rac-N-(2-Chloro-5-(2,2-dichloro-3-(3,5-dichlorophenyl)cyclopropane-1-carboxamido)phenyl)tetrahydrofuran-2-carboxamide], the “activity against BAW (percent mortality, averaged over eight wells)” value is given as “exhibited activity”.

For `Cc1cc(C)cc(C(=O)Nc2cc(NC(=O)[C@H]3[C@H](c4cc(Cl)cc(Cl)c4)C3(Cl)Cl)ccc2Cl)c1` (racemic) [F76, trans-rac-N-(2-Chloro-5-(2,2-dichloro-3-(3,5-dichlorophenyl)cyclopropane-1-carboxamido)phenyl)-3,5-dimethylbenzamide], the “activity against BAW (percent mortality, averaged over eight wells)” value is listed as “exhibited activity”.

Consider `O=C(CN1CCOCC1)Nc1cc(NC(=O)[C@H]2[C@H](c3cc(Cl)cc(Cl)c3)C2(Cl)Cl)ccc1F` (racemic) [F63, trans-rac-2,2-Dichloro-3-(3,5-dichlorophenyl)-N-(4-fluoro-3-(2-morpholinoacetamido)phenyl)cyclopropane-1-carboxamide], for which the “activity against BAW (percent mortality, averaged over eight wells)” value was “exhibited activity”.

Consider `O=C(Nc1ccc(Cl)c(NC(=O)C(F)(F)c2ccccc2)c1)[C@H]1[C@H](c2cc(Cl)cc(Cl)c2)C1(Cl)Cl` (racemic) [F57, trans-rac-2,2-Dichloro-N-(4-chloro-3-(2,2-difluoro-2-phenylacetamido)phenyl)-3-(3,5-dichlorophenyl)cyclopropane-1-carboxamide], for which the “activity against BAW (percent mortality, averaged over eight wells)” value was “exhibited activity”.

For the compound `O=C(Nc1cc(NC(=O)[C@H]2[C@H](c3cc(Cl)cc(Cl)c3)C2(Cl)Cl)ccc1Cl)c1nc(C(F)(F)F)cs1` (racemic) [F36, trans-rac-N-(2-Chloro-5-(2,2-dichloro-3-(3,5-dichlorophenyl)cyclopropane-1-carboxamido)phenyl)-4-(trifluoromethyl)thiazole-2-carboxamide], the “activity against BAW (percent mortality, averaged over eight wells)” value is listed as “exhibited activity”.

Consider `O=C(Nc1cc(NC(=O)[C@H]2[C@H](c3cc(Cl)cc(Cl)c3)C2(Cl)Cl)ccc1Cl)c1cc(=O)[nH]o1` (racemic) [F37, trans-rac-N-(2-Chloro-5-(2,2-dichloro-3-(3,5-dichlorophenyl)cyclopropane-1-carboxamido)phenyl)-3-oxo-2,3-dihydroisoxazole-5-carboxamide], for which the “activity against BAW (percent mortality, averaged over eight wells)” value is on record as “exhibited activity”.

Take `O=C(Nc1cc(NC(=O)[C@H]2[C@H](c3cc(Cl)cc(Cl)c3)C2(Cl)Cl)ccc1Cl)c1ccccc1F` (racemic) [F65, trans-rac-N-(2-Chloro-5-(2,2-dichloro-3-(3,5-dichlorophenyl)cyclopropane-1-carboxamido)phenyl)-2-fluorobenzamide]: the “activity against BAW (percent mortality, averaged over eight wells)” value is recorded as “exhibited activity”.

With `O=C(CCC(F)(F)F)Nc1ccc(C(=O)Nc2cc(NC(=O)[C@H]3[C@H](c4ccc(F)c(C(F)(F)F)c4)C3(Cl)Cl)ccc2Cl)c(F)c1` (racemic) [F120, trans-rac-N-(2-Chloro-5-(2,2-dichloro-3-(4-fluoro-3-(trifluoromethyl)phenyl)cyclopropane-1-carboxamido)phenyl)-2-fluoro-4-(4,4,4-trifluorobutanamido)benzamide], the “activity against BAW (percent mortality, averaged over eight wells)” value is recorded as “exhibited activity”.

Regarding `O=C(Nc1cc(NC(=O)C2C(c3cc(Cl)cc(Cl)c3)C2(Cl)Cl)ccc1Cl)C1CCCN1CC(F)(F)F` (racemic) [F52, trans-rac-N-(2-Chloro-5-(2,2-dichloro-3-(3,5-dichlorophenyl)cyclopropane-1-carboxamido)phenyl)-1-(2,2,2-trifluoroethyl)pyrrolidine-2-carboxamide], the “activity against BAW (percent mortality, averaged over eight wells)” value was “exhibited activity”.

For the compound `O=C(COCC(F)(F)F)Nc1ccc(C(=O)Nc2cc(NC(=O)[C@H]3[C@H](c4ccc(F)c(C(F)(F)F)c4)C3(Cl)Cl)ccc2Cl)c(F)c1` (racemic) [F119, trans-rac-N-(2-Chloro-5-(2,2-dichloro-3-(4-fluoro-3-(trifluoromethyl)phenyl)cyclopropane-1-carboxamido)phenyl)-2-fluoro-4-(2-(2,2,2-trifluoroethoxy)acetamido)benzamide], the “activity against BAW (percent mortality, averaged over eight wells)” value is recorded as “exhibited activity”.

For `Nc1c(F)ccc(C(=O)Nc2cc(NC(=O)[C@H]3[C@H](c4ccc(F)c(C(F)(F)F)c4)C3(Cl)Cl)ccc2Cl)c1F` [F103, 3-amino-N-(2-chloro-5-((1R,3R)-2,2-dichloro-3-(4-fluoro-3-(trifluoromethyl)phenyl)cyclopropane-1-carboxamido)phenyl)-2,4-difluorobenzamide], the “activity against BAW (percent mortality, averaged over eight wells)” value is listed as “exhibited activity”.

As to `CC(CC(F)(F)F)C(=O)Nc1cc(NC(=O)C2C(c3cc(Cl)cc(Cl)c3)C2(Cl)Cl)ccc1Cl` (racemic) [F8, trans-rac-2,2-Dichloro-N-(4-chloro-3-(4,4,4-trifluoro-2-methylbutanamido)phenyl)-3-(3,5-dichlorophenyl)cyclopropane-1-carboxamide], the “activity against BAW (percent mortality, averaged over eight wells)” value is “exhibited activity”.

Take `Cc1cc(C#N)ccc1C(=O)N(C)c1cc(NC(=O)[C@H]2[C@H](c3cc(Cl)cc(Cl)c3)C2(Cl)Cl)ccc1Cl` (racemic) [F93, trans-rac-N-(2-Chloro-5-(2,2-dichloro-3-(3,5-dichlorophenyl)cyclopropane-1-carboxamido)phenyl)-4-cyano-N,2-dimethylbenzamide]: the “activity against BAW (percent mortality, averaged over eight wells)” value is on record as “exhibited activity”.

On to `Cc1cc(C#N)ccc1C(=O)Nc1cc(NC(=O)[C@H]2[C@H](c3ccc(F)c(C(F)(F)F)c3)C2(Cl)Cl)ccc1Cl` [F97, N-(2-Chloro-5-((1R,3R)-2,2-dichloro-3-(4-fluoro-3-(trifluoromethyl)phenyl)cyclopropane-1-carboxamido)phenyl)-4-cyano-2-methylbenzamide], for which the “activity against BAW (percent mortality, averaged over eight wells)” value is “exhibited activity”.

With `O=C(Nc1cc(NC(=O)C2C(c3cc(Cl)cc(Cl)c3)C2(Cl)Cl)ccc1Cl)C1CC1(F)F` (racemic) [F44, trans-rac-2,2-Dichloro-N-(4-chloro-3-(2,2-difluorocyclopropane-1-carboxamido)phenyl)-3-(3,5-dichlorophenyl)cyclopropane-1-carboxamide], the “activity against BAW (percent mortality, averaged over eight wells)” value is “exhibited activity”.

`Cc1cc(C#N)ccc1C(=O)Nc1cc(NC(=O)[C@H]2[C@H](c3ccc(Cl)c(Cl)c3)C2(Cl)Cl)ccc1Cl` [F99, N-(2-Chloro-5-((1R,3R)-2,2-dichloro-3-(3,4-dichlorophenyl)cyclopropane-1-carboxamido)phenyl)-4-cyano-2-methylbenzamide]: the “activity against BAW (percent mortality, averaged over eight wells)” value is “exhibited activity”.

Take `O=C(Nc1cc(NC(=O)[C@H]2[C@H](c3cc(Cl)cc(Cl)c3)C2(Cl)Cl)ccc1Cl)c1ccccc1` (racemic) [F87, trans-rac-N-(2-Chloro-5-(2,2-dichloro-3-(3,5-dichlorophenyl)cyclopropane-1-carboxamido)phenyl)benzamide]: the “activity against BAW (percent mortality, averaged over eight wells)” value was “exhibited activity”.

Consider `O=C(Nc1ccc(F)c(NC(=O)C(F)(F)C(F)(F)C(F)(F)F)c1F)[C@H]1[C@H](c2cc(Cl)c(Cl)c(Cl)c2)C1(Cl)Cl` [F13, (1R,3R)-2,2-Dichloro-N-(2,4-difluoro-3-(2,2,3,3,4,4,4-heptafluorobutanamido)phenyl)-3-(3,4,5-trichlorophenyl)cyclopropane-1-carboxamide], for which the “activity against BAW (percent mortality, averaged over eight wells)” value is given as “exhibited activity”.

For `C#Cc1ccc(C(=O)Nc2cc(NC(=O)[C@H]3[C@H](c4cc(Cl)cc(Cl)c4)C3(Cl)Cl)ccc2Cl)cc1` (racemic) [F91, trans-rac-N-(2-Chloro-5-(2,2-dichloro-3-(3,5-dichlorophenyl)cyclopropane-1-carboxamido)phenyl)-4-ethynylbenzamide], the “activity against BAW (percent mortality, averaged over eight wells)” value is “exhibited activity”.

For `CC(CC(=O)Nc1cc(NC(=O)[C@H]2[C@H](c3ccc(F)c(C(F)(F)F)c3)C2(Cl)Cl)ccc1Cl)C(F)(F)F` (stereo partly drawn) [F102, (1R,3R)-2,2-Dichloro-N-(4-chloro-3-(4,4,4-trifluoro-3-methylbutanamido)phenyl)-3-(4-fluoro-3-(trifluoromethyl)phenyl)cyclopropane-1-carboxamide], the “activity against BAW (percent mortality, averaged over eight wells)” value is reported as “exhibited activity”.

`O=C(Nc1cc(NC(=O)[C@H]2[C@H](c3cc(Cl)cc(Cl)c3)C2(Cl)Cl)ccc1Cl)c1cc(F)cc(F)c1` (racemic) [F26, trans-rac-N-(2-chloro-5-(2,2-dichloro-3-(3,5-dichlorophenyl)cyclopropane-1-carboxamido)phenyl)-3,5-difluorobenzamide]: the “activity against BAW (percent mortality, averaged over eight wells)” value was “exhibited activity”.

Consider `O=C(Nc1cc(NC(=O)[C@H]2[C@H](c3cc(Cl)cc(Cl)c3)C2(Cl)Cl)ccc1Cl)c1cccc(C(F)(F)F)c1` (racemic) [F81, trans-rac-N-(2-Chloro-5-(2,2-dichloro-3-(3,5-dichlorophenyl)cyclopropane-1-carboxamido)phenyl)-3-(trifluoromethyl)benzamide], for which the “activity against BAW (percent mortality, averaged over eight wells)” value is on record as “exhibited activity”.

For the compound `O=C(Nc1cc(NC(=O)[C@H]2[C@H](c3cc(Cl)cc(Cl)c3)C2(Cl)Cl)ccc1Cl)c1ccco1` (racemic) [F34, trans-rac-N-(2-Chloro-5-(2,2-dichloro-3-(3,5-dichlorophenyl)cyclopropane-1-carboxamido)phenyl)furan-2-carboxamide], the “activity against BAW (percent mortality, averaged over eight wells)” value is given as “exhibited activity”.
